Measurements: patent publication US20160243142A1, “AVICIN D FOR TREATMENT OF MANTLE CELL LYMPHOMA” (Research Development Foundation, priority 2015, published 2016)
Entries after “also recorded” stand apart in the source; their conditions may differ.

How the values were obtained:
[1] = Toxicity / body weight in Mino xenograft bearing NODscid mice; type: in vivo; details: for tolerability of dosing protocols: 0.5, 1.0 and 1.0-2.0 mg/kg s.c. daily; for animals removed from the study due to drug toxicity / treatment related deaths (TR): Group 5: escalating 1.0-2.0 mg/kg s.c., N = 10
Method: (§1) Animals were treated according to Table 3 below. Animals were dosed in the opposite flank opposing the tumors at 10 mL/kg. Daily clinical observations were made and body weights and tumor measurements were performed thrice weekly. Animals were maintained on study until their tumor burden reached the study endpoint of 2000 mm^3. Animals were euthanized at the study endpoint with terminal cardiocentesis performed for serum collection and plasma preparation in K2EDTA. Tumors were excised and fixed in 10% formalin.
Non-treatment related deaths (NTR), non-treatment metastatic related deaths (NTRm), and treatment related deaths (TR) were monitored. Animal body weight was monitored three times weekly throughout the study and mean % body weight loss was calculated and plotted with GraphPad Prism 5.0. Animals displaying >20% body weight loss were to be euthanized and recorded as TRs.

[2] = system: Mino mantle cell lymphoma xenograft; experiment: Tumor growth delay in Mino mantle cell lymphoma xenograft bearing NODscid mice; type: in vivo; details: for PR (partial response): N = 10; for Log10 cell kill (750 mm^3): activity threshold 0.7
Excerpt: 80 NOD .CB17 -Prkdcscid/J (NOD scid) (JAX, West Sacramento, Calif.) 4-6 week old female mice were transferred to the in vivo research laboratory in West Sacramento, CA. The mice were ear notched for identification and housed in individually and positively ventilated polycarbonate cages with HEPA filtered air at a density of five mice per cage. Bed-o'cobs® bedding was used and cages were changed every two weeks. The animal room was illuminated entirely with artificial fluorescent lighting, with a controlled 12 h light/dark cycle (7 am to 7 pm light). The normal temperature and relative humidity ranges in the animal rooms were 22±4° C. and 50±15%, respectively. The animal rooms were set to have 15 air exchanges per hour. Filtered tap water, acidified to a pH of 2.8 to 3.1, and LabDiet 5LL4 were provided ad libitum.
Mino Mantle Cell Lymphoma cells (ATCC catalogue #CRL-3000™, Manassas, Va.) were maintained in RPMI 1640 with 2 mM 1-glutamine, 25 mM HEPES, 4.5 g/L D-glucose (Invitrogen, San Diego, Calif.) supplemented with 10% ES cell certified fetal bovine serum (Hyclone, Logan, Utah). The cells were suspended at 1×10^8 cells/ml in serum free media, and 80 mice were subcutaneously injected in the rear right flanks with 10^7 cells in 100 μL. Tumor volumes were monitored with ULTRA-Cal IV digital calipers (Fowler, Newton, Mass.), and 50 animals were tumor size rank matched into five cohorts of 10 animals with mean tumor volumes of approximately 150 mm^3.
as §1
Animals were euthanized when the tumors had reached the 2000 mm^3 study endpoint, and the tumors were harvested, weighed, and placed in 10% formalin. Table 4 summarizes the clinical observation schedule and the body weight and tumor measurement schedule performed.
Tumor volumes were calculated from digital caliper raw data by using the formula: […]
The value w (width) was the smaller of two perpendicular tumor axes and the value l (length) was the larger of two perpendicular axes.
The tumor growth delay (TGD) method was used to analyze drug treatment effects on time (days) to tumor endpoint (TTE) for Mino tumor response. The tumor endpoint volume for TTE analysis was set at 2000 mm^3 and TTE was defined in days by the formula: […]
The value for b was the (y) intercept and m was the slope of the line calculated from a linear regression of log-transformed tumor growth data for each tumor calculated from a minimum of three time points preceding 2000 mm^3 and a minimum of one that surpassed the time point for 2000 mm^3. Treatment initiated when tumors reached approximately 150 mm^3, and animals were drugged according to Table 3. Tumors were monitored until animals were euthanized due to tumors reaching a 2000 mm^3 endpoint, and the study was concluded on day 59 post drug treatment initiation.
Treatment efficacy was determined by comparing TTE values calculated for each treatment group and by calculating percent tumor growth delay for each treatment group:
T represented the median TTE in days for a drug treatment group and C represented the median TTE in days for the control group. Statistical significance for median TTE values for treatment group comparisons was determined by the Log-rank test with GraphPad Prism 5.0 software (GraphPad, La Jolla, Calif.). A 95% confidence value was used for two-tailed statistical analyses. Log-rank survival curves were plotted based on survival to 2000 mm3 to visualize the statistical significance of the median TTE values between treatment groups. […]

[3] = approved dose; alternative treatment 1.9 months; cited from earlier work
[4] = 3.3 mg/kg i.v. days 1 and 8 (Group 2)
[5] = Group 1 vs. Group 3: vehicle control vs. 0.5 mg/kg s.c.
[6] = Group 1 vs. Group 4: vehicle control vs. 1.0 mg/kg s.c.
[7] = Group 1 vs. Group 5: vehicle control vs. 1.0-2.0 mg/kg s.c.
[8] = Group 3: 0.5 mg/kg s.c. daily days 1-33
[9] = Group 3 vs. Group 4: 0.5 mg/kg vs. 1.0 mg/kg s.c.
[10] = Group 3 vs. Group 5: 0.5 mg/kg vs. 1.0-2.0 mg/kg s.c.
[11] = Group 4: 1.0 mg/kg s.c. daily days 1-2, 5-33
[12] = Group 4 vs. Group 5: 1.0 mg/kg vs. 1.0-2.0 mg/kg s.c.
[13] = Group 5: escalating 1.0-2.0 mg/kg s.c. daily days 1-2, 5-33

COc1cccc2c1C(=O)c1c(O)c3c(c(O)c1C2=O)C[C@@](O)(C(=O)CO)C[C@@H]3O[C@H]1C[C@H](N)[C@H](O)[C@H](C)O1 [Adriamycin, doxorubicin, reference compound]
day by which animals were removed from study [1, 4]: ≤ 16 days
toxicity of positive control [1, 4]: significant body weight loss; also recorded: severe toxicity
toxicity of positive control ([1]; 3.3 mg/kg i.v. days 1 and 8 (Group 2), listed as adriamycin): significant treatment-related body weight loss

C=CC(C)(O)CC/C=C(\CO)C(=O)O[C@@H]1C(C)O[C@@H](O[C@](C)(C=C)CC/C=C(\CO)C(=O)O[C@H]2C[C@@]3(C(=O)O[C@@H]4OC(CO)[C@@H](O)C(O)C4O[C@@H]4OC(C)[C@H](O[C@@H]5O[C@@H](CO)C(O)[C@@H]5O)C(O[C@@H]5OC(CO)[C@@H](O)C(O)C5O)C4O)C(CC2(C)C)C2=CCC4[C@@]5(C)CC[C@H](O[C@@H]6OC(CO[C@@H]7OC(C)[C@H](O)C(O)C7O[C@@H]7OC[C@@H](O)C(O)C7O)[C@@H](O)C(O)C6NC(C)=O)C(C)(C)C5CC[C@@]4(C)[C@]2(C)C[C@H]3O)C(O)C1O (some centres unmarked) [AVD-001]
nadir mean % body weight change ([1]; 0.5 mg/kg dose cohort, day 2): −4.43%
nadir mean % body weight change ([1]; 1.0 mg/kg dose cohort, day 3): −11.82%
tolerability of dosing protocols [1]: generally well-tolerated
tolerability of dosing protocols ([1]; listed as Avicin): generally well tolerated
body weight loss ([1]; Group 3 (0.5 mg/kg s.c.), peaked at day 2): 4%
animals removed from the study due to drug toxicity / treatment related deaths (TR) [1]: Two
animals removed from the study due to drug toxicity / treatment related deaths (TR) ([1]; listed as Avicin): two and Two
transient body weight loss ([1]; Groups 4 and 5 (1.0 and 1.0-2.0 mg/kg s.c.), dosing suspended days 3 and 4): 10%
nadir average % body weight change ([1]; escalating dose 1.0-2.0 cohort, day 3): −10.42%
injection site findings ([1]; several Group 3, 4 and 5 mice, s.c.): irritation and/or bleeding at the injection site
Hazard Ratio [2, 5]: 3.159
Median survival Ratio (control/treated) [2, 5]: 0.7412
Hazard Ratio [2, 6]: 3.492
Median survival Ratio (control/treated) [2, 6]: 0.6941
Hazard Ratio [2, 7]: 10.36
Median survival Ratio (control/treated) [2, 7]: 0.5675
Median Survival (to 2000 mm^3) ([2]; Group 3: 0.5 mg/kg s.c.): 29.2 days
% TGD (tumor growth delay) [2, 8]: 34.9%
Median TTE (time to tumor endpoint, 2000 mm^3) [2, 8]: 29.2 days
PR (partial response) ([2]; Group 3: 0.5 mg/kg s.c.): 3
Log10 cell kill (750 mm^3) ([2]; Group 3: 0.5 mg/kg s.c.): 0.57
Hazard Ratio [2, 9]: 1.588
Median survival Ratio [2, 9]: 0.9365
Hazard Ratio [2, 10]: 5.491
Median survival Ratio [2, 10]: 0.7657
Median Survival (to 2000 mm^3) ([2]; Group 4: 1.0 mg/kg s.c.): 31.18 days
% TGD (tumor growth delay) [2, 11]: 44.1%
Median TTE (time to tumor endpoint, 2000 mm^3) [2, 11]: 31.2 days
PR (partial response) ([2]; Group 4: 1.0 mg/kg s.c.): 4
Log10 cell kill (750 mm^3) ([2]; Group 4: 1.0 mg/kg s.c.): 0.45
Hazard Ratio [2, 12]: 1.674
Median survival Ratio [2, 12]: 0.8177
Median Survival (to 2000 mm^3) ([2]; Group 5: 1.0-2.0 mg/kg s.c.): 38.14 days
PR (partial response) ([2]; Group 5: 1.0 to 2.0 mg/kg s.c.): 6
Log10 cell kill (750 mm^3) ([2]; Group 5: 1.0 to 2.0 mg/kg s.c.): 0.89
% TGD (tumor growth delay) [2, 13]: 76.2%
Median TTE (time to tumor endpoint, 2000 mm^3) [2, 13]: 38.1 days

CO[C@H]1C[C@@H]2CC[C@@H](C)[C@@](O)(O2)C(=O)C(=O)N2CCCC[C@H]2C(=O)O[C@H]([C@H](C)C[C@@H]2CC[C@@H](OC(=O)C(C)(CO)CO)[C@H](OC)C2)CC(=O)[C@H](C)/C=C(\C)[C@@H](O)[C@@H](OC)C(=O)[C@H](C)C[C@H](C)/C=C/C=C/C=C/1C [Torisel, temsirolimus]
average time lived without disease getting worse [3]: 4.8 months
